Source: patent US20060270589A1, “Carotenoids, carotenoid analogs, or carotenoid derivatives for the treatment of visual disabilities” (priority 2005, published 2006)

How the values were obtained:
[1] = system: superoxide anion generation from phorbol-ester (PMA)-stimulated PMNs; test: Direct superoxide anion scavenging by EPR spectroscopy (DEPMPO spin-trap) in isolated human neutrophil assay; assay type: cell-based; settings: 40% EtOH, 0.1 mM; EtOH vehicle background 5%; listed as lutein diphosphate, sodium salt
Protocol: Human polymorphonuclear leukocytes (PMNs) were isolated from freshly sampled venous blood of a single volunteer by Percoll density gradient centrifugation as described previously. Briefly, each 10 mL of whole blood was mixed with 0.8 mL of 0.1 M EDTA and 25 mL saline. The diluted blood was then layered over 9 mL Percoll at a specific density of 1.080 g/mL. After centrifugation at 400 g for 20 min at 20° C., the plasma, mononuclear cell, and Percoll layers were removed. Erythrocytes were subsequently lysed by addition of 18 mL ice-cold water for 30 s, followed by 2 mL of 10× PIPES buffer (25 mM PIPES, 110 mM NaCl, and 5 mM KCl, titrated to pH 7.4 with NaOH). […] Afterward, PMNs were counted by light microscopy on a hemocytometer. […]
All EPR measurements were performed using a Bruker ER 300 EPR spectrometer operating at X-band with a TM110 cavity as previously described. The microwave frequency was measured with a Model 575 microwave counter (EIP Microwave, Inc., San Jose, Calif.). […]
Instrument settings used in the spin-trapping experiments were as follows: modulation amplitude, 0.32 G; time constant, 0.16 s; scan time, 60 s; modulation frequency, 100 kHz; microwave power, 20 mW; and microwave frequency, 9.76 GHz. The samples were placed in a quartz EPR .at cell, and spectra were recorded. The component signals in the spectra were identified and quantified as reported previously.

[2] = assay type: physicochemical
Protocol: (§1) 30.13 mg of 3 was added to 1 mL USP-purified water. The sample was rotated for 2 h and then centrifuged for 5 min. After centrifuging, solid was visible in the bottom of the tube. A 125 μL aliquot of the solution was then diluted to 25 mL. The sample was analyzed by UV/Vis spectroscopy at 436 nm, and the absorbance was compared to a standard curve compiled from four standards of known concentration. The concentration of the original supernatant was calculated to be 2.85 mg/mL and the absorptivity was 36.94 AU mL/cm mg. Slight error may have been introduced by the small size of the original aliquot.
as §1, with “Next, 30.80” for “30.13”, “8” for “3”, “411” for “436”, “29.27” for “2.85”, “2.90” for “36.94”

3,3′-Diphosphoryloxy-β,ε-carotene sodium salt [Compound 8]
Mean (% inhibition) of superoxide anion signal [1]: (mean % inhibition = 18%) was increased above background scavenging (5%)
Increase in aqueous dispersibility versus the disuccinate sodium salt [2]: > 10 fold
